Reference: US20160279236A1, “USE OF RAPAMYCIN AS VACCINE ADJUVANT AND PREPARATION METHOD THEREFOR” (INSTITUT PASTEUR OF SHANGHAI, CHINESE ACADEMY OF SCIENCES, priority 2013, published 2016)
“Also recorded” adds a separate entry of the source.

Legend:
BMDCs = test: Cytokine production (ELISA) in LPS-stimulated BMDCs pre-treated with rapamycin; type: cell-based, C57BL/6 mice
Method: Bone marrow stem cells from 6-8 weeks aged C57BL/6 mice were taken, and erythrocytes were removed by using ammonium chloride lysate (0.15 M NH4Cl, 1 mM […], 0.1 mM Na2EDTA, pH7.3), and then suspension-cultured at a cell density of 10^6 cells/mL in a dendritic cell (bone-marrow derived dendritic cell, BMDC) differentiation medium (formulation of which was: RPMI 1640 complete medium (comprising 5% (v/v) FBS and 1% (v/v) pen strep), with 20 ng/ml GM-CSF, 10 ng/ml IL-4, 2 mM L-glutamine and 200 μM β-mercaptoethanol being added). After differentiation for 7 days, the cells were purified with CD11c magnetic beads to obtain BMDCs. The purified BMDCs were resuspended in a fresh dendritic cell culture medium (10^6 cells/ml), and inoculated into 24-well plate with 500 μL per well 100 nM of rapamycin or DMSO (control) were used to pre-treat the cells for 1 hour, and then the cells were stimulated with 100 ng/ml LPS for 24 hours. The supernatant was taken and the amount of IL-12 was measured by ELISA.

[1] = tested on: HBsAg-specific antibody and T cell responses; test: HBsAg VLP immunization of mice with adjuvants: antibody titers and Elispot T cell responses; type: in vivo, C57BL/6 mice
Method: Virus-like particles (VLP) consisting of (HBV) outer membrane protein antigens is one of the few successful recombinant vaccines clinically used. Aluminum adjuvant (Alum) can only enhance the immune response of VLP in health populations, while it is of limited effects in the elderly people and patients with renal dysfunction. […] In order to further analyze the adjuvant activity of rapamycin, C57BL/6 mice were immunized by the inventors using HBsAg VLP (5 μg/mouse) (Shanghai Yemin Biotechnology Co., Ltd., Item number YM-101) as antigen in mixture with Alum (200 μg/mouse), Alum (200 μg/mouse)+MPL (10 μg/mouse), MPL (10 μg/mouse)+rapamycin (100 μg/mouse) respectively, and was immunized with HBsAg (without MPL or rapamycin) 3 weeks after the primary immunization. The mice were killed 2 weeks after the secondary immunization, and blood was taken to determine the content of HBsAg-specific IgG1, IgG2b, IgG2c. To test HBsAg-specific T cell responses, the inventors have determined HBsAg-specific induced Th1, Th17 and Th2 responses by Elispot (Elispot Assay).
The specific operations are listed as follows: spleen cells were inoculated at 5×10^5 cells per-well into Elispot 96-wells plate of IFNγ, IL-17 or IL-4, and treated or untreated (control) with HBsAg (10 μg/ml) or CD8 peptides (10 μg/ml, […], VWLSVIWM, China Peptides Co., LTD., Shanghai), incubated under 37° C., 5% CO2 for two days. The cells and supernatants were removed. The plates were washed with PBST for 5 times, then incubated with 50 μl of 2 μg/ml biotin-coupled IFNγ (ebioscience, cat No: 13-7312), IL-17 (ebioscience, cat No: 13-7177) or IL-4 (Mabtech, cat No: 3311-6-250) detecting antibody under 37° C. for 2 hours, washed with PBST for 5 times, then incubated with 100 μl of 1000-fold diluted Streptavidin-alkaline phosphatase (Mabtech, cat No: 3310-10) under 37° C. for 1 hour. After this incubation, plates washed with PBST for 3 times, and then washed with PBS for two times. 100 μl of NBT/CPIT substrate (Mabtech, cat No: 3650-10) was added and incubated at room temperature for 0.5 hour. Plates were washed with deionized water for 3 times, and then naturally dried in darkness. The numbers of positive spots was calculated with Elispot Reader, and then statistically analyzed.

[2] = tested on: HBsAg-specific antibody and T cell responses; test: HBsAg immunization with Compositions 1-3 (different amounts of rapamycin + MPL); type: in vivo, mice
Method: Composition 1, comprising (dosage for one mouse): rapamycin 5 μg, MPL 10 μg, and PBS 0.2 ml;
Composition 2, comprising (dosage for one mouse): rapamycin 20 μg, MPL 10 μg, and PBS 0.2 ml;
Composition 3, comprising (dosage for one mouse): rapamycin 100 μg, MPL 10 μg, and PBS 0.2 mL.
Mice were immunized with Compositions 1-3 in mixture with HBsAg (5 μg, dosage for one mouse) respectively, and were boosted 3 weeks after the primary immunization. The mice were killed after one week, and the serum was prepared to determine the content of HBsAg-specific IgG1, IgG2b and IgG2c (FIG. 5). Meanwhile, spleen cells (5×10^5 cells) were respectively stimulated by using 10 μg/ml of CD8^+ T cell epitope peptide ([…] or VWLSVIWM) and CD4^+ T cell epitope peptide ([…]), and after 48 hours, enzyme linked immunosorbent assays (ELISA) was used to determine the content of IFNγ in the supernatant (FIG. 5b). […] Moreover, at all of the three concentrations, rapamycin has increased T cell response induced by MPL, especially the activation of CD4^+ and CD8^+ T cells which secrete IFN-γ (FIG. 5b).

[3] = tested on: HBsAg-specific antibody titers; test: HBsAg homologous prime-boost immunization with adjuvants; type: in vivo, C57BL6 mice
Method: HBsAg (5 μg/mouse) was respectively mixed with the following adjuvants or adjuvant combinations: rapamycin (100 μg/mouse)+MPL (10 μg/mouse), MPL (10 μg/mouse), rapamycin (100 μg/mouse) or Alum (200 μg/mouse)+MPL (10 μg/mouse) to immunize (primary immunization) C57BL6 mice. After 4 weeks, each group of mice was boosted according to the same program as the primary immunization. The mice were killed after two weeks, and serum was prepared for determining the content of HBsAg-specific IgG1, IgG2b and IgG2c.

[4] = BMDCs, 100 nM rapamycin, 100 ng/ml LPS
[5] = 5 μg of rapamycin + MPL 10 μg, HBsAg 5 μg per mouse
[6] = after immunized for two times, HBsAg 5 μg/mouse, rapamycin 100 μg/mouse, serum two weeks after boost

CO[C@H]1C[C@@H]2CC[C@@H](C)[C@@](O)(O2)C(=O)C(=O)N2CCCC[C@H]2C(=O)O[C@H]([C@H](C)C[C@@H]2CC[C@@H](O)[C@H](OC)C2)CC(=O)[C@H](C)/C=C(\C)[C@@H](O)[C@@H](OC)C(=O)[C@H](C)C[C@H](C)/C=C/C=C/C=C/1C [rapamycin]
amount of IL-12, increase compared with the control group (BMDCs; 100 nM rapamycin pre-treatment 1 hour, 100 ng/ml LPS 24 hours, supernatant ELISA, DMSO control): more than 3 times | LPS-induced IL-12 production (BMDCs; [4]): enhanced; also recorded: promote | induced-secretion of IL-23 (BMDCs; [4]): remarkably increase; also recorded: enhanced; also recorded: promote | production of IL-10 (BMDCs; [4]): inhibit the production; also recorded: inhibited | LPS-induced IL-12 production (BMDCs; BMDCs, 100 nM rapamycin, 100 ng/ml LPS, listed as Rapamycin): significantly enhance | HBsAg-specific antigen response enhanced by MPL ([1]; FIG. 4a): increased | HBsAg-specific CD8+ T cell responses ([1]; IFNγ Elispot of spleen cells, CD8 peptides, compared with MPL+Alum immunized group): increased | HBsAg-specific CD4+ T cell responses ([1]; IFNγ Elispot of spleen cells, compared with MPL+Alum immunized group): increased | HBsAg-specific Th2 cell response ([1]; IL-4 Elispot, compared with MPL+Alum immunized group): increased | HBsAg-specific Th17 cell response ([1]; IL-17 Elispot, compared with MPL+Alum immunized group): increased | antibody titers induced by MPL [2, 5]: significantly increase | increase of secretion of IgG2b induced by MPL [2, 5]: ~5 times | increase of secretion of IgG2c induced by MPL [2, 5]: ~5 times | T cell response induced by MPL (IFN-γ secreting CD4+ and CD8+ T cells) ([2]; all three amounts of rapamycin (5, 20, 100 μg) + MPL 10 μg, IFNγ ELISA of peptide-stimulated spleen cells): increased | HBsAg-specific antibody responses enhanced by MPL ([2]; different amounts of rapamycin, FIG. 5a): increased | antibodies induced by MPL ([2]; rapamycin raised to 20 or 100 μg + MPL 10 μg, HBsAg 5 μg per mouse): further enhanced | MPL-induced antibody titers and T cell response, dose dependence ([2]; rapamycin within the range of 5-100 μg): dose-dependent manner | HBsAg-induced antibody titers, IgG1 [3, 6]: significantly enhance | HBsAg-induced antibody titers, IgG2b [3, 6]: significantly enhance | HBsAg-induced antibody titers, IgG2c [3, 6]: significantly enhance | adjuvant activity of MPL ([3]; homologous prime-boost immunization program, FIG. 6): remarkably enhance
